Laboratory results as given in patent US9290505B2, “Substituted imidazo[1,2-a]pyrazines as Syk inhibitors” (Gilead Sciences, Inc., priority 2013, dated 2016).
Values after ≈ are worked out from the molar mass of the structure shown.

Assays:
human hepatocytes = assay: Human Hepatocyte Stability Assay; type: in vitro ADME; conditions: predicted hepatocyte clearance, 1 μM compound
Experimental: The human […] stability of the compounds as predicted hepatocyte clearance in L/hr/kg was assessed. Compounds to be tested were diluted to 200 μM (4 μl of 10 mM DMSO stock into 196 μl ACN:H2O (50:50). Propranolol was used as a positive control, and buffer only without hepatocytes as 0% control. These were further diluted 4 μl with 891 μl KHB buffer (InVitroGRO catalog number Z99074) to provide 2× dosing solution. To each well of 24 well plate, 250 μl of the 2× dosing solution was added to each well with 250 μl of hepatocytes cells (1×10^6 viable cells/ml per well) or KHB for control samples to achieve a final compound concentration of 1 μM during incubation. The final solvent concentration was 0.01% DMSO and 0.25% ACN. The culture plate was placed on a rocker and incubated at 37° C., 5% CO2. Samples were collected at time 0, 1, 3, and 6 hours. The loss of parent compound was determined using LC-MS methods against a standard curve.

Syk = Syk (Homo sapiens (Human), UniProt P43405); assay: High Throughput Syk Biochemical Assay (KinEASE TR-FRET)
Experimental: Syk activity was measured using KinEASE (Cisbio), a time-resolved fluorescence resonance energy transfer (TR-FRET) immunoassay. In this assay, Syk-catalyzes the phosphorylation of a XL665-labeled peptide substrate. Europium conjugated phospho-tyrosine specific antibody binds the resulting phosphorylated peptide. Formation of phosphorylated peptide is quantified by TR-FRET with Europium as the donor and XL665 the acceptor in a 2-step endpoint assay. In brief, test compounds serially diluted in DMSO were delivered into Corning white, low volume, non-binding 384 well plates using the Echo 550 acoustic liquid dispenser (Labcyte®). Syk enzyme and substrates were dispensed into assay plates using a Multi-Flo (Bio-Tek Instruments).

[1] = Kinetic solubility in phosphate buffer at pH 7.4; type: physicochemical
Experimental: The kinetic solubility of compounds in phosphate buffer at pH 7.4 was assessed. The compounds to be tested were dissolved in dimethylsulfoxide at a 10 mM concentration. Stock samples were diluted, 3 μl with 297 μl of the phosphate buffer at pH 7.4 (DulBecco's phosphate buffered saline (Sigma-Aldrich D8662), overall molarity is 0.149M and pH 7.43). The samples were then incubated for 24 hours at 37° C. with shaking, the centrifuged and an aliquot taken and tested relative to a known standard concentration of 0.1 mM.

[2] = comparison table with known Syk inhibitors
[3] = phosphate buffer, 37 °C, aqueous buffer, kinetic from dmso stock, comparison table, kinetic solubility pH 7.4
[4] = aqueous buffer, kinetic from dmso stock, kinetic solubility, phosphate buffer pH 7.4, 24 hours at 37° C.
[5] = comparison table, kinetic solubility pH 7.4

Structure (SMILES)	Hheps CL (human hepatocytes)	IC50 (Syk; 20 μM ATP, 0.015 nM Syk)	IC50 (Syk; [2])	solubility at 24 h [1, 3]	solubility at 24 h [1, 4]	solubility at 24 h [1, 5]
Cc1ncc(-c2cn3ccnc3c(Nc3ccc(N4CCN(C5COC5)CC4)c(OCCO)c3)n2)nc1N [Ex.-7, 2-(5-((6-(6-amino-5-methylpyrazin-2-yl)imidazo[1,2-a]pyrazin-8-yl)amino)-2-(4-(oxetan-3-yl)piperazin-1-yl)phenoxy)ethanol]	0.83 mL/min/kg	0.0087 µM	0.0087 µM			
COc1ccc(Nc2nc(-c3cccc(N)c3)cn3ccnc23)cc1OC [6-(3-aminophenyl)-N-(3,4-dimethoxyphenyl)imidazo[1,2-a]pyrazin-8-amine, reference compound]			0.188 µM	3 µM (≈ 1.08 µg/mL)		
COc1ccc(Nc2nc(-c3ccc(N)nc3)cn3ccnc23)cc1OC [6-(6-aminopyridin-3-yl)-N-(3,4-dimethoxyphenyl)imidazo[1,2-a]pyrazin-8-amine, reference compound]			0.053 µM	10 µM (≈ 3.62 µg/mL)		
Nc1cncc(-c2cn3ccnc3c(Nc3ccc(N4CCN(C5COC5)CC4)cc3)n2)n1 [Ex.-2, 6-(6-aminopyrazin-2-yl)-N-(4-(4-(oxetan-3-yl)piperazin-1-yl)phenyl)imidazo[1,2-a]pyrazin-8-amine]	0.917 mL/min/kg				95 µM (≈ 42.1 µg/mL)	95 µM (≈ 42.1 µg/mL)
Nc1cncc(-c2cn3ccnc3c(Nc3ccc(N4CCO[C@@H](CO)C4)cc3)n2)n1 [Ex.-3, (R)-(4-(4-((6-(6-aminopyrazin-2-yl)imidazo[1,2-a]pyrazin-8-yl)amino)phenyl)morpholin-2-yl)methanol]	1.5 mL/min/kg	0.0133 µM	0.0133 µM		91 µM (≈ 38.1 µg/mL)	91 µM (≈ 38.1 µg/mL)
Nc1cncc(-c2cn3ccnc3c(Nc3ccc(N4CCN(CC(CO)CO)CC4)cc3)n2)n1 [Ex.-6, 2-((4-(4-((6-(6-aminopyrazin-2-yl)imidazo[1,2-a]pyrazin-8-yl)amino)phenyl)piperazin-1-yl)methyl)propane-1,3-diol]	1.3 mL/min/kg	0.0145 µM	0.0145 µM		99 µM (≈ 47.1 µg/mL)	99 µM (≈ 47.1 µg/mL)
Cc1c(-c2cncc(N)n2)nc(Nc2ccc(N3CCN(C4COC4)CC3)cc2)c2nccn12 [Ex.-4, 6-(6-aminopyrazin-2-yl)-5-methyl-N-(4-(4-(oxetan-3-yl)piperazin-1-yl)phenyl)imidazo[1,2-a]pyrazin-8-amine]	1.3 mL/min/kg	0.044 µM	0.044 µM		100 µM (≈ 45.8 µg/mL)	100 µM (≈ 45.8 µg/mL)
Nc1cncc(-c2cn3ccnc3c(Nc3ccc(N4CCOCC4)cc3)n2)c1 [6-(5-aminopyridin-3-yl)-N-(4-morpholinophenyl)imidazo[1,2-a]pyrazin-8-amine, reference compound]			0.031 µM	5 µM (≈ 1.94 µg/mL)		
Cc1ncc(-c2cn3ccnc3c(Nc3ccc(N4CCN(C5COC5)CC4)cc3)n2)nc1N [Ex.-1, 6-(6-amino-5-methylpyrazin-2-yl)-N-(4-(4-(oxetan-3-yl)piperazin-1-yl)phenyl)imidazo[1,2-a]pyrazin-8-amine]	2 mL/min/kg	0.0062 µM	0.0062 µM		95 µM (≈ 43.5 µg/mL)	95 µM (≈ 43.5 µg/mL)
Cc1ncc(-c2cn3ccnc3c(Nc3ccc(N4CCOCC4)cc3)n2)cc1N [6-(5-amino-6-methylpyridin-3-yl)-N-(4-morpholinophenyl)imidazo[1,2-a]pyrazin-8-amine, reference compound]			0.016 µM	5 µM (≈ 2.01 µg/mL)		
Nc1cncc(-c2cn3ccnc3c(Nc3ccc(N4CCN(C5COC5)CC4)c(OCCO)c3)n2)n1 [Ex.-5, 2-(5-((6-(6-aminopyrazin-2-yl)imidazo[1,2-a]pyrazin-8-yl)amino)-2-(4-(oxetan-3-yl)piperazin-1-yl)phenoxy)ethanol]	1.2 mL/min/kg	0.0122 µM	0.0122 µM		97 µM (≈ 48.8 µg/mL)	97 µM (≈ 48.8 µg/mL)
